# According to publication PMC7915026, “Sulfaguanidine Hybrid with Some New Pyridine-2-One Derivatives: Design, Synthesis, and Antimicrobial Activity against Multidrug-Resistant Bacteria as Dual DNA Gyrase and DHFR Inhibitors” (Antibiotics, 2021):
# Where two headings read alike, the source gives them in different places.
# What was measured:
# [1] = tested on: C. albicans (ATCC 10231); experiment: Inhibition zone, paper disk/agar diffusion; assay type: cell-based; details: Na = no activity
# Description: (§1) The antimicrobial activity performed at the bacteriology laboratory, Botany and Microbiology Department, Faculty of Science, Al-Azhar University, Cairo, Egypt. The inhibition zone (IZ) of the tested derivatives expressed as the diameter (mm) according to the agar plate diffusion method.
# [2] = tested on: F. oxysporum (RCMB 008002); experiment: Inhibition zone, paper disk/agar diffusion; assay type: cell-based; details: Na = no activity; further: test concentration or dose not given here
# Description: as §1
# [3] = tested on: B. subtilis ATCC 6633; experiment: Inhibition zone, paper disk/agar diffusion; further: test concentration or dose not given here; assay type: cell-based; details: B. subtilis; Na = no activity
# Description: as §1
# [4] = tested on: E. coli ATCC 25922; experiment: Inhibition zone, paper disk/agar diffusion; assay type: cell-based; details: E. coli; Na = no activity
# Description: as §1
# [5] = tested on: S. aureus ATCC 29213; experiment: Inhibition zone, paper disk/agar diffusion; further: test concentration or dose not given here; assay type: cell-based; details: S. aureus; Na = no activity
# Description: as §1
# [6] = tested on: S. typhi ATCC 6539; experiment: Inhibition zone, paper disk/agar diffusion; assay type: cell-based; details: S. typhi; Na = no activity
# Description: as §1
# [7] = tested on: E. faecalis ATCC 29212; experiment: Inhibition zone, paper disk/agar diffusion; further: test concentration or dose not given here; assay type: cell-based; details: E. faecalis; Na = no activity
# Description: as §1
# [8] = tested on: P. aeruginosa ATCC 27853; experiment: Inhibition zone, paper disk/agar diffusion; assay type: cell-based; details: P. aeruginosa; Na = no activity
# Description: as §1
# [9] = tested on: F. oxysporum (RCMB 008002); experiment: MIC and MFC determination; assay type: cell-based
# [10] = tested on: E. coli ATCC 25922; experiment: MIC and MBC determination; assay type: cell-based; details: Escherichia coli, ATCC25922, E. coli
# [11] = tested on: B. subtilis ATCC 6633; experiment: MIC and MBC determination; assay type: cell-based; details: Bacillus subtilis, ATCC6633, B. subtilis
# [12] = tested on: C. albicans (ATCC 10231); experiment: MIC and MFC determination; assay type: cell-based
# [13] = tested on: S. aureus ATCC 33591; experiment: Inhibition zone against multidrug-resistant bacteria; further: test concentration or dose not given here; assay type: cell-based; details: MDRB S. aureus ATCC 33591
# Description: (§2) Norfloxacin was used as a positive control for the multidrug resistance study.
# as §1
# [14] = tested on: E. coli ATCC BAA-196; experiment: as above; assay type: cell-based; details: MDRB E. coli ATCC BAA-196
# Description: as §2, §1
# [15] = tested on: P. aeruginosa ATCC BAA-2111; experiment: as above; assay type: cell-based; details: MDRB P. aeruginosa ATCC BAA-2111
# Description: as §2, §1
# [16] = tested on: S. aureus ATCC 43300; experiment: as above; assay type: cell-based; details: MDRB S. aureus ATCC 43300
# Description: as §2, §1
# [17] = biological target: S. aureus DNA gyrase (Staphylococcus aureus, UniProt P0A0K8+P20831); experiment: In vitro DNA gyrase supercoiling enzymatic assay; assay type: biochemical
# S. aureus DNA gyrase, sequence (P20831 whole entry): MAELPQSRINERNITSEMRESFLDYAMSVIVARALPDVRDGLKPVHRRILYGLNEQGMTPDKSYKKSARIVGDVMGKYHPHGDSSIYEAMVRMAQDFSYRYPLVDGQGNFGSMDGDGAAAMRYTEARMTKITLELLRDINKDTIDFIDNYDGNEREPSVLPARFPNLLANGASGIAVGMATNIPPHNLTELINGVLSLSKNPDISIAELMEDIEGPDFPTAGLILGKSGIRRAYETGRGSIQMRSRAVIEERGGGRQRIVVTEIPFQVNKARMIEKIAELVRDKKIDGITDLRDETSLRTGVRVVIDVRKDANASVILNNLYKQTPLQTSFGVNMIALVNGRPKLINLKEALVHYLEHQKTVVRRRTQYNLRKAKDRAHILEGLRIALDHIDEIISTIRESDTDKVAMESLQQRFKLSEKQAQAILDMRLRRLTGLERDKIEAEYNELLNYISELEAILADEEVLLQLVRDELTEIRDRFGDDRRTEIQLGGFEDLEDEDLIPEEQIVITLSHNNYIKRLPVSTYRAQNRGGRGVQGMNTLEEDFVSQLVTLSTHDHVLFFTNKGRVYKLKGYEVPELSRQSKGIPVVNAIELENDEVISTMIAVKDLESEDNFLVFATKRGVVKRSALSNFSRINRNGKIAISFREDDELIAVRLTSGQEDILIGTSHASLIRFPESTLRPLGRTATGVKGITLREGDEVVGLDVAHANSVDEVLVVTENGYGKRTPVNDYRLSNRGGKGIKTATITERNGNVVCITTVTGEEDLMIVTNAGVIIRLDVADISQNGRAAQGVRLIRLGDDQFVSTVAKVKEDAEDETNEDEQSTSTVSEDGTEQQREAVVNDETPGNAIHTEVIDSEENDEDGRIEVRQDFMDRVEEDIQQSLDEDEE
# S. aureus DNA gyrase, sequence (P0A0K8 whole entry): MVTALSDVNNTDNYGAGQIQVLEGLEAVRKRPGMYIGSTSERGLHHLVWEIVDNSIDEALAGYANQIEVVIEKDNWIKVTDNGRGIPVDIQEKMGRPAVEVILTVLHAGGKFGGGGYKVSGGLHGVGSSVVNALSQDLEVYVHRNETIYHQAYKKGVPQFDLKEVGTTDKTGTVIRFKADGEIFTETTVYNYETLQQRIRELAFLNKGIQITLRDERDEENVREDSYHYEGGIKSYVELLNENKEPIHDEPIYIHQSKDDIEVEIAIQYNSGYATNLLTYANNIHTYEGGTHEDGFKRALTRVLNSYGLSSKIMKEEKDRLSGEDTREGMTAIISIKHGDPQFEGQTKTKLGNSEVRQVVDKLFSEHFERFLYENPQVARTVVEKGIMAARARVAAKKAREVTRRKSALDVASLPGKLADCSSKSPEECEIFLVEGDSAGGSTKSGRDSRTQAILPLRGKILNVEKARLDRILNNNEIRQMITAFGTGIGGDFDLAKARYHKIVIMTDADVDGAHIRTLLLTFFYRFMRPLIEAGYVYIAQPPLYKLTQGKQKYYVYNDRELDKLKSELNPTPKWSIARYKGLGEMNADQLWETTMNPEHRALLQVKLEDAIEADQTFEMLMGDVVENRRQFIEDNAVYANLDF
# [18] = tested on: P. aeruginosa ATCC 27853; experiment: MIC and MBC determination; assay type: cell-based; details: Pseudomonas aeruginosa, ATCC27853, P. aeruginosa
# [19] = tested on: S. aureus ATCC 29213; experiment: MIC and MBC determination; assay type: cell-based; details: Staphylococcus aureus, ATCC29213, S. aureus
# [20] = tested on: Salmonella typhi (S. typhi ATCC 6539); experiment: microbe, parasite or virus in culture; assay type: cell-based; details: Salmonella enterica, Salmonella typhi
# [21] = tested on: E. faecalis ATCC 29212; experiment: MIC and MBC determination; assay type: cell-based; details: Enterococcus faecalis, ATCC29212, E. faecalis
# [22] = tested on: S. aureus ATCC 33591; experiment: MIC and MBC against multidrug-resistant strains; assay type: cell-based; details: Staphylococcus aureus, ATCC33591, S. aureus ATCC 33591
# Description: as §2
# (§3) The experiment was repeating for three-times.
# [23] = tested on: E. coli ATCC BAA-196; experiment: MIC and MBC against multidrug-resistant strains; assay type: cell-based; details: E. coli ATCC BAA-196
# Description: as §2, §3
# [24] = tested on: P. aeruginosa ATCC BAA-2111; experiment: MIC and MBC against multidrug-resistant strains; assay type: cell-based; details: P. aeruginosa ATCC BAA-2111
# Description: as §2, §3
# [25] = tested on: S. aureus ATCC 43300; experiment: MIC and MBC against multidrug-resistant strains; assay type: cell-based; details: Staphylococcus aureus, ATCC43300, S. aureus ATCC 43300
# Description: as §2, §3
# Wherever Mean Diameter of Inhibition Zone is given: test concentration or dose not given here.
structure (smiles),measurement,setting,value
"COc1ccc(-c2c(C#N)c(N)n(-c3ccc(S(=O)(=O)NC(=N)N)cc3)c(=O)c2C#N)cc1O [Compound 3d, 4-(6-Amino-3,5-dicyano-4-(3-hydroxy-4-methoxyphenyl)-2-oxopyridin-1(2H)-yl)-N-carbamimidoylbenzenesulfonamide]",Mean Diameter of the Inhibition Zone,[1],17 ± 0.21 mm
same,Mean Diameter of the Inhibition Zone,[2],no activity
same,Mean Diameter of the Inhibition Zone,[3],20 ± 0.11 mm
same,Mean Diameter of the Inhibition Zone,[4],22 ± 0.43 mm
same,Mean Diameter of the Inhibition Zone,[5],23 ± 0.29 mm
same,Mean Diameter of the Inhibition Zone,[6],15 ± 0.36 mm
same,Mean Diameter of the Inhibition Zone,[7],21 ± 0.54 mm
same,melting point,,250 to 252 °C
"N#CCC(=O)Nc1ccc(S(=O)(=O)NC(=N)N)cc1 [Compound 1, N-(4-(N-Carbamimidoylsulfamoyl)phenyl)-2-cyanoacetamide]",Mean Diameter of the Inhibition Zone,[1],15 ± 0.63 mm
same,Mean Diameter of the Inhibition Zone,[2],13 ± 0.54 mm
same,Mean Diameter of the Inhibition Zone,[3],14 ± 0.70 mm
same,Mean Diameter of the Inhibition Zone,[4],16 ± 0.35 mm
same,Mean Diameter of the Inhibition Zone,[5],17 ± 0.50 mm
same,Mean Diameter of the Inhibition Zone,[6],17 ± 0.54 mm
same,Mean Diameter of the Inhibition Zone,[8],20±0.65 mm
same,Mean Diameter of the Inhibition Zone,[7],19 ± 0.70 mm
same,melting point,,172 to 174 °C
"COc1ccc(/C=C(\C#N)C(=O)Nc2ccc(S(=O)(=O)NC(=N)N)cc2)cc1 [Compound 2b, N-(4-(N-Carbamimidoylsulfamoyl)phenyl)-2-cyano-3-(4-methoxyphenyl) acrylamide]",MFC/MIC,[9],<2
same,MFC,"[9]; Fusarium oxysporum, RCMB008002, read-out: MFC",222.3 ± 1.65 µM
same,MIC,"[9]; Fusarium oxysporum, RCMB008002, read-out: MIC",139 ± 1.53 µM
same,Mean Diameter of the Inhibition Zone,[2],17 ± 0.50 mm
same,Mean Diameter of the Inhibition Zone,[3],25 ± 0.87 mm
same,Mean Diameter of the Inhibition Zone,[4],23 ± 0.2 mm
same,Mean Diameter of the Inhibition Zone,[5],21 ± 0.3 mm
same,Mean Diameter of the Inhibition Zone,[8],21 ± 0.55 mm
same,Mean Diameter of the Inhibition Zone,[7],24 ± 0.35 mm
same,MBC,[10]; read-out: MBC,219.1 ± 2.14 µM
same,MIC,[10]; read-out: MIC,156 ± 2.65 µM
same,MBC,[11]; read-out: MBC,35.2 ± 1.25 µM
same,MIC,[11]; read-out: MIC,19.6 ± 0.39 µM
same,MFC/MIC,[12],<2
same,MFC,"[12]; Candida albicans, ATCC10231, read-out: MFC",133 ± 1.65 µM
same,MIC,"[12]; Candida albicans, ATCC10231, read-out: MIC",78.2 ± 0.95 µM
same,Mean Diameter of Inhibition Zone,[13],21 ± 0.11 mm
same,Mean Diameter of Inhibition Zone,[14],22 ± 0.85 mm
same,Mean Diameter of Inhibition Zone,[15],19 ± 0.16 mm
same,Mean Diameter of Inhibition Zone,[16],20 ± 0.34 mm
same,IC50,[17],29.1 ± 1.93 µM
same,MBC,[18]; read-out: MBC,133 ± 1.02 µM
same,MIC,[18]; read-out: MIC,78.2 ± 1.24 µM
same,MBC,[19]; read-out: MBC,78.2 ± 0.87 µM
same,MIC,[19]; read-out: MIC,39.1 ± 1.67 µM
same,MBC,[20]; read-out: MBC,70.4 ± 0.85 µM
same,MIC,[20]; read-out: MIC,39.1 ± 0.36 µM
same,MBC,[21]; read-out: MBC,46.3 ± 0.74 µM
same,MIC,[21]; read-out: MIC,23.1 ± 0.61 µM
same,MBC,[22]; read-out: MBC,18.8 ± 0.21 µM
same,MIC,[22]; read-out: MIC,9.38 ± 0.35 µM
same,MBC,[23],9.38 ± 0.74 µM
same,MIC,[23],4.69 ± 0.45 µM
same,MBC,"[23]; Escherichia coli, ATCCBAA196, read-out: MBC",9.38 µM
same,MIC,"[23]; Escherichia coli, ATCCBAA196, read-out: MIC",4.69 µM
same,MBC,[24],18.77 ± 0.87 µM
same,MIC,[24],9.38 ± 0.47 µM
same,MBC,"[24]; Pseudomonas aeruginosa, ATCCBAA2111, read-out: MBC",18.8 µM
same,MIC,"[24]; Pseudomonas aeruginosa, ATCCBAA2111, read-out: MIC",9.38 µM
same,MBC,[25]; read-out: MBC,39.1 ± 0.54 µM
same,MIC,[25]; read-out: MIC,19.6 ± 0.52 µM
"COc1ccc(-c2c(C(=O)Nc3ccc(S(=O)(=O)NC(=N)N)cc3)c(N)n(C3CCCCC3)c(=O)c2C#N)cc1 [Compound 4, 2-Amino-N-(4-(N-carbamimidoylsulfamoyl)phenyl)-5-cyano-1-cyclohexyl-4-(4-methoxyphenyl)-6-oxo-1,6-dihydropyridine-3-carboxamide]",Mean Diameter of the Inhibition Zone,[1],20 ± 0.50 mm
same,Mean Diameter of the Inhibition Zone,[2],no activity
same,Mean Diameter of the Inhibition Zone,[3],23 ± 0.22 mm
same,Mean Diameter of the Inhibition Zone,[5],24 ± 0.33 mm
same,Mean Diameter of the Inhibition Zone,[6],no activity
same,Mean Diameter of the Inhibition Zone,[8],23 ± 0.74 mm
same,Mean Diameter of the Inhibition Zone,[7],25 ± 0.35 mm
same,melting point,,272 to 274 °C
